Read-outs that look alike come from different tables or passages of the source. Where only a bound is given, the exact number is not on record here.

The IC50 is the midpoint of a concentration-inhibition curve.

Assay [1] deals with A431 (ATCC: CRL-1555). The assay is described as follows: Test of cancer cell growth inhibition (SRB), A431. The note with it: read-out: IC50 A431.
For assay [2], the system named is SK-Br3 (ATCC: HTB-30). The assay is described as follows: Test of cancer cell growth inhibition (SRB), SK-Br3. The settings on record: read-out: IC50 SK-Br-3.
Assay [3] has as its system SW-620 (ATCC: CCL-227). The assay is described as follows: Test of cancer cell growth inhibition (SRB), SW-620. The note with it: read-out: IC50 SW-620.
[4] abbreviates: EGFR overexpressed A431, 72 hours, SRB.
[5] abbreviates: Erb-B2 overexpressed SK-Br3, 72 hours, SRB.
Setting [6] is: SW-620 not having overexpressed EGFR and Erb-B2, 72 hours, SRB.

On to `CC(C)=CC(=O)NCCC(=O)Nc1ccc2ncnc(Nc3ccc(OCc4cccc(F)c4)c(Cl)c3)c2c1` [Example 29, 3-methyl-but-2-enonylic acid (2-{4-[3-chloro-4-(3-fluoro-benzyloxy)-phenylamino]-quinazolin-6-ylcarbamoyl}-ethyl)-amide], for which the IC50 was 310 nM in assay [1] (setting [4]), 54 nM in assay [2] (setting [5]) and > 10 µM in assay [3] (setting [6]).
As for `C=C(C)C(=O)NCCC(=O)Nc1ccc2ncnc(Nc3ccc(OCc4cccc(F)c4)c(Cl)c3)c2c1` [Example 30, N-(2-{4-[3-chloro-4-(3-fluoro-benzyloxy)-phenylamino]-quinazolin-6-ylcarbamoyl}-ethyl)-2-methyl-acrylamide], the IC50 in assay [1] (Homo sapiens, A-431, 72 h) was 119 nM; in assay [2] (Homo sapiens, SK-BR-3, 72 h) it was 38 nM; in assay [3] (Homo sapiens, SW-620, 72 h) it was > 10 µM.
For the compound `COCC(=O)NCC(OC(C)=O)C(=O)Nc1ccc2ncnc(Nc3ccc(OCc4cccc(F)c4)c(Cl)c3)c2c1` (stereo not drawn) [Example 39-2, acetic acid 1-{4-[3-chloro-4-(3-fluoro-benzyloxy)-phenylamino]-quinazolin-6-ylcarbamoyl}-2-(2-methoxy-acetylamino)-ethylester], the 50% inhibitory concentration (IC50) in assay [1] (Homo sapiens, A-431, 72 h) is 482 nM; in assay [2] (Homo sapiens, SK-BR-3, 72 h), 45 nM; in assay [3] (Homo sapiens, SW-620, 72 h) it was > 10 µM.
For `COCC(=O)NCC(O)C(=O)Nc1ccc2ncnc(Nc3ccc(OCc4cccc(F)c4)c(Cl)c3)c2c1` (stereo not drawn) [Example 40, N-{4-[3-chloro-4-(3-fluoro-benzyloxy)-phenylamino]-quinazolin-6-yl}-2-hydroxyl-3-(2-methoxy-acetylamino)-propionamide], the IC50 in assay [1] (Homo sapiens, A-431, 72 h) is 327 nM; in assay [2] (Homo sapiens, SK-BR-3, 72 h), 84 nM; in assay [3] (Homo sapiens, SW-620, 72 h), > 10 µM.
For `COCC(=O)NCC(C)C(=O)Nc1ccc2ncnc(Nc3ccc(OCc4cccc(F)c4)c(Cl)c3)c2c1` (stereo not drawn) [Example 42-2, N-{4-[3-chloro-4-(3-fluoro-benzyloxy)-phenylamino]-quinazolin-6-yl}-3-(2-methoxy-acetylamino)-2-methyl-propionamide], the IC50 is 340 nM in assay [1] (Homo sapiens, A-431, 72 h); 102 nM in assay [2] (Homo sapiens, SK-BR-3, 72 h); > 10 µM in assay [3] (Homo sapiens, SW-620, 72 h).
Consider `C=CC(=O)NCC(C)C(=O)Nc1ccc2ncnc(Nc3ccc(OCc4cccc(F)c4)c(Cl)c3)c2c1` (stereo not drawn) [Example 44, N-(2-{4-[3-chloro-4-(3-fluoro-benzyloxy)-phenylamino]-quinazolin-6-ylcarbamoyl}-propyl)-acrylamide], for which the IC50 was 43 nM in assay [1] (Homo sapiens, A-431, 72 h); 6 nM in assay [2] (Homo sapiens, SK-BR-3, 72 h); > 10 µM in assay [3] (Homo sapiens, SW-620, 72 h).
Consider `C=CC(=O)NCCC(=O)Nc1ccc2ncnc(Nc3ccc(F)c(Cl)c3)c2c1` [Example 54, N-{2-[4-(3-chloro-4-fluoro-phenylamino)-quinazolin-6-ylcarbamoyl]-ethyl}-acrylamide], for which the IC50 in assay [1] (Homo sapiens, A-431, 72 h) is 321 nM; in assay [2] (Homo sapiens, SK-BR-3, 72 h) it was 46 nM; in assay [3] (Homo sapiens, SW-620, 72 h), > 10 µM.
Take `O=C(CCl)NCCC(=O)Nc1ccc2ncnc(Nc3ccc(OCc4cccc(F)c4)c(Cl)c3)c2c1` [Example 61, 3-(2-chloro-acetylamide)-N-{4-[3-chloro-4-(3-fluoro-benzyloxy)-phenylamino]-quinazolin-6-yl}-propionamide]: the results for the half-inhibitory concentration (IC50) in assay [1] (setting [4]), in assay [2] (setting [5]) and in assay [3] (setting [6]) were 168 nM, 98 nM and > 10 µM, respectively.
For `CC(C)(C)OC(=O)NCCC(=O)Nc1ccc2ncnc(Nc3ccc4c(cnn4Cc4ccccc4)c3)c2c1` [Example 77, {2-[4-(1-benzyl-1-indazol-5-ylamino)-quinazolin-6-ylcarbamoyl]-ethyl}-carbamic acid t-butylester], the IC50 was 208 nM in assay [1] (setting [4]), 86 nM in assay [2] (setting [5]) and > 10 µM in assay [3] (setting [6]).
As to `C=CC(=O)NCCC(=O)Nc1ccc2ncnc(Nc3cncn3Cc3ccccc3)c2c1` [Example 79, N-{2-[4-(1-benzyl-1H-imidazol-5-ylamino)-quinazolin-6-ylcarbamoyl]-ethyl}-acrylamide], the IC50 is 65 nM in assay [1] (Homo sapiens, A-431, 72 h); 3 nM in assay [2] (Homo sapiens, SK-BR-3, 72 h); > 10 µM in assay [3] (Homo sapiens, SW-620, 72 h).
The matching figures for `C=CC(=O)NCCC(=O)Nc1cc2c(Nc3ccc(OCc4cccc(F)c4)c(Cl)c3)ncnc2cc1OCCCN1CCOCC1` [Example 85-2, N-{2-[4-[3-chloro-4-(3-fluoro-benzyloxy)phenylamino]-7-(3-morpholin-4-yl-propoxy)-quinazolin-6-ylcarbamoyl]-ethyl}-acrylamide]: 12 nM, 3 nM and > 10 µM.
Turning to `COCC(=O)NCCCC(=O)Nc1ccc2ncnc(Nc3ccc(OCc4cccc(F)c4)c(Cl)c3)c2c1` [Example 87-2, N-{4-[3-chloro-4-(3-fluoro-benzyloxy)-phenylamino]-quinazolin-6-yl}-4-(2-methoxy-acetylamino)-butyramide], the IC50 is 95 nM in assay [1] (Homo sapiens, A-431, 72 h); 35 nM in assay [2] (Homo sapiens, SK-BR-3, 72 h); > 10 µM in assay [3] (Homo sapiens, SW-620, 72 h).
The corresponding values for `C=CC(=O)NCCCC(=O)Nc1ccc2ncnc(Nc3ccc(OCc4cccc(F)c4)c(Cl)c3)c2c1` [Example 89, 4-acryloylamino-N-{4-[3-chloro-4-(3-fluoro-benzyloxy)-phenylamino]-quinazolin-6-yl}-butyramide] are 173 nM, 19 nM and > 10 µM.
Turning to `N#CCC(=O)NCCCC(=O)Nc1ccc2ncnc(Nc3ccc(OCc4cccc(F)c4)c(Cl)c3)c2c1` [Example 93, N-{4-[3-chloro-4-(3-fluoro-benzyloxy)-phenylamino]-quinazolin-6-yl}-4-(2-cyano-acetylamino)-butyramide], the IC50 in assay [1] (Homo sapiens, A-431, 72 h) was 324 nM; in assay [2] (Homo sapiens, SK-BR-3, 72 h), 33 nM; in assay [3] (Homo sapiens, SW-620, 72 h), > 10 µM.
Take `C=CC(=O)NCCCC(=O)Nc1ccc2ncnc(Nc3ccc(Oc4ccc(C)nc4)c(C)c3)c2c1` [Example 101, 4-acryloylamino-N-{4-[3-methyl-4-(6-methyl-pyridin-3-yloxy)-phenylamino]-quinazolin-6-yl}-butyramide]: the IC50 in assay [1] (Homo sapiens, A-431, 72 h) is 786 nM; in assay [2] (Homo sapiens, SK-BR-3, 72 h), 21 nM; in assay [3] (Homo sapiens, SW-620, 72 h), > 10 µM.
The corresponding values for `O=C(CCl)NCCCC(=O)Nc1ccc2ncnc(Nc3ccc(OCc4cccc(F)c4)c(Cl)c3)c2c1` [Example 102, 4-(2-chloro-acetylamino)-N-{4-[3-chloro-4-(3-fluoro-benzyloxy)-phenylamino]-quinazolin-6-yl}-butyramide] are 345 nM, 80 nM and > 10 µM.
On to `O=C(CN1CCOCC1)NCCCC(=O)Nc1ccc2ncnc(Nc3ccc(OCc4cccc(F)c4)c(Cl)c3)c2c1` [Example 103, N-{4-[3-chloro-4-(3-fluoro-benzyloxy)-phenylamino]-quinazolin-6-yl}-4-(2-morpholin-4-yl-acetylamino)-butyramide], for which the half-maximal inhibitory concentration (IC50) in assay [1] (Homo sapiens, A-431, 72 h) is 227 nM; in assay [2] (Homo sapiens, SK-BR-3, 72 h), 42 nM; in assay [3] (Homo sapiens, SW-620, 72 h), > 10 µM.
As for `CN(C)CC(=O)NCCCC(=O)Nc1ccc2ncnc(Nc3ccc(OCc4cccc(F)c4)c(Cl)c3)c2c1` [Example 104, N-{4-[3-chloro-4-(3-fluoro-benzyloxy)-phenylamino]-quinazolin-6-yl}-4-(2-dimethylamino-acetylamino)-butyramide], the IC50 in assay [1] (Homo sapiens, A-431, 72 h) is 254 nM; in assay [2] (Homo sapiens, SK-BR-3, 72 h) it was 22 nM; in assay [3] (Homo sapiens, SW-620, 72 h) it was > 10 µM.
Turning to `COCC(=O)NCCCCC(=O)Nc1ccc2ncnc(Nc3ccc(OCc4cccc(F)c4)c(Cl)c3)c2c1` [Example 115-2, 5-(2-methoxy-acetylamino)-pentanoic acid {4-[3-chloro-4-(3-fluoro-benzyloxy)-phenylamino]-quinazolin-6-yl}-amide], the IC50 in assay [1] (Homo sapiens, A-431, 72 h) is 117 nM; in assay [2] (Homo sapiens, SK-BR-3, 72 h), 38 nM; in assay [3] (Homo sapiens, SW-620, 72 h), > 10 µM.
